Values of other authors in patent EP1232240B1, “DETERGENT COMPOSITIONS” (UNILEVER N.V., priority 1999, dated 2001).

Details: grams of solid to form a saturated solution in 100 grams of water at 20°C

NC(N)=O [Urea]
Water Solubility (g/100g): >100 g/100g
